# Where two headings read alike, the source gives them in different places.
# How the values were obtained:
# Pseudomonas aeruginosa = assay: MIC, P. aeruginosa (Table 2); assay type: cell-based; settings: read-out: Anti-Microbial Activity MIC, P. aerug.
# Description: (§1) Anti-Microbial Activity of Examples 1-6 (MIC in μg/mL)
# (§2) Antimicrobial activity was evaluated to determine minimal inhibitory concentration ("MIC") and Minimal Bactericidal Concentration ("MBC"). The specific biological testing protocol is published R. Kang et al., "J. Agric. Food Chem.," vol. 40 pp. 2328-2330 (1994), the entirety of which is herein incorporated by reference.
# Actinomyces neaslundii = assay: MIC, A. neaslundii (Table 1); assay type: cell-based; settings: read-out: Anti-Microbial Activity MIC, A. neasl
# Description: (§3) The anti-microbial activity of Examples 1-6 were evaluated.
# as §1, §2
# [1] = tested on: Staphylococcus epidermidis; assay: MIC, S. epidermidis (Table 1); assay type: cell-based; settings: read-out: Anti-Microbial Activity MIC, S. e.
# Description: as §3, §1, §2
# Corynebacterium xerosis = assay: MIC, C. xerosis (Table 1); assay type: cell-based; settings: read-out: Anti-Microbial Activity MIC, C. x.
# Description: as §3, §1, §2
# [2] = tested on: Corynebacterium minutissimum; assay: MIC, C. minutissimum (Table 1); assay type: cell-based; settings: read-out: Anti-Microbial Activity MIC, C. m.
# Description: as §3, §1, §2
# Candida albicans = assay: MIC, C. albicans (Table 2); assay type: cell-based; settings: read-out: Anti-Microbial Activity MIC, C. a.
# Description: as §1, §2
# Steptococcus mutans = assay: MIC, S. mutans (Table 1); assay type: cell-based; settings: Streptococcus mutans, read-out: Anti-Microbial Activity MIC, S. m.
# Description: as §3, §1, §2
# Aspergillus niger = assay: MIC, A. niger (Table 2); assay type: cell-based; settings: read-out: Anti-Microbial Activity MIC, A. niger
# Description: as §1, §2
# Propionibacterium acnes = assay: MIC, P. acnes (Table 1); assay type: cell-based; settings: Cutibacterium acnes, read-out: Anti-Microbial Activity MIC, P. acnes
# Description: as §3, §1, §2
# Escherichia coli = assay: MIC, E. coli (Table 2); assay type: cell-based; settings: read-out: Anti-Microbial Activity MIC, E. c.
# Description: as §1, §2
# Staphylococcus aureus = assay: MIC, S. aureus (Table 1); assay type: cell-based; settings: read-out: Anti-Microbial Activity MIC, S. a.
# Description: as §3, §1, §2
# oral bacteria = settings: N. Didry et al. 1994; cited from earlier work
# [3] = tested on: bacteria involved in upper respiratory tract infections; settings: N. Didry et al. 1993; cited from earlier work
# [4] = P. aeruginosa strain 15442, gram -
# [5] = A. neaslundii strain 19039, gram+
# [6] = S. epidermidis strain 1228, gram+
# [7] = C. minutissimum strain 23348, gram+
# [8] = C. albicans strain 10231, fungi
MIC (Pseudomonas aeruginosa; [4]) [µg/mL],MIC (Actinomyces neaslundii; [5]) [µg/mL],"MIC [1, 6] [µg/mL]","MIC (Corynebacterium xerosis; C. xerosis strain 373, gram+) [µg/mL]","MIC [2, 7] [µg/mL]",MIC (Candida albicans; [8]) [µg/mL],"MIC (Steptococcus mutans; S. mutans strain 25175, gram+) [µg/mL]","MIC (Aspergillus niger; A. niger strain 16404, fungi) [µg/mL]","MIC (Propionibacterium acnes; P. acnes strain 6919, gram+) [µg/mL]","MIC (Escherichia coli; E. coli strain 11229, gram -) [µg/mL]","MIC (Staphylococcus aureus; S. aureus strain 6535, gram+) [µg/mL]",Structure (SMILES),also measured
> 1000,62.5,62.5,62.5,62.5,125,31.2,125,31.2,> 1000,62.5,"CCCc1c(C)ccc(C(C)C)c1O [Example 3a, Ortho Propyl Thymol]",–
> 1000,31.2,31.2,31.2,31.2,62.5,31.2,125,31.2,> 1000,31.2,"CCCc1cc(C(C)C)c(O)cc1C [Example 3b, Para Propyl Thymol]",–
> 1000,≤ 15.6,31.2,≤ 15.6,≤ 15.6,62.5,≤ 15.6,62.5,≤ 15.6,> 1000,≤ 15.6,"CCCc1cc(C)c(O)cc1C(C)C [Example 4b, Para Propyl Carvacrol]",–
> 1000,31.2,31.2,31.2,31.2,62.5,31.2,125,31.2,> 1000,125,"CCCc1c(C(C)C)ccc(C)c1O [Example 4a, Ortho Propyl Carvacrol]",–

# Second part, the molecule before the results:
Structure (SMILES),MIC (Pseudomonas aeruginosa; [4]) [µg/mL],MIC (Actinomyces neaslundii; [5]) [µg/mL],"MIC [1, 6] [µg/mL]","MIC (Corynebacterium xerosis; C. xerosis strain 373, gram+) [µg/mL]","MIC [2, 7] [µg/mL]",MIC (Candida albicans; [8]) [µg/mL],"MIC (Steptococcus mutans; S. mutans strain 25175, gram+) [µg/mL]","MIC (Aspergillus niger; A. niger strain 16404, fungi) [µg/mL]","MIC (Propionibacterium acnes; P. acnes strain 6919, gram+) [µg/mL]","MIC (Escherichia coli; E. coli strain 11229, gram -) [µg/mL]","MIC (Staphylococcus aureus; S. aureus strain 6535, gram+) [µg/mL]",also measured
"Cc1ccc(C(C)C)c(O)c1 [Thymol, thymol, reference compound]",> 1000,125,250,250,125,250,250,125,125,250,250,inhibitory activity on several microorganisms (oral bacteria): showed an inhibitory activity on several microorganisms; antimicrobial activity in several in vitro methods [3]: broad spectrum activity
"C=CCc1cc(C(C)C)c(O)cc1C [Example 1b, Para Allyl Thymol]",> 1000,62.5,62.5,62.5,62.5,125,31.2,125,31.2,> 1000,62.5,–
"C=CCc1cc(C)c(O)cc1C(C)C [Example 2b, Para Allyl Carvacrol]",–,–,62.5,62.5,62.5,125,62.5,125,62.5,–,62.5,–
"C=CCc1c(C)ccc(C(C)C)c1O [Example 1a, Ortho Allyl Thymol]",> 1000,62.5,62.5,62.5,62.5,125,62.5,125,62.5,> 1000,62.5,–
"CCCc1cc(C(C)(C)C)ccc1O [Example 6, Ortho Propyl Para tert-Butyl Phenol]",–,–,15.6,15.6,15.6,–,–,–,7.8,> 500,15.6,–
C=CCc1ccc(O)c(OC)c1 [eugenol],–,–,–,–,–,–,–,–,–,–,–,inhibitory activity on several microorganisms (oral bacteria): showed an inhibitory activity on several microorganisms
"C=CCc1c(C(C)C)ccc(C)c1O [Example 2a, Ortho Allyl Carvacrol]",> 1000,62.5,62.5,62.5,62.5,125,62.5,125,31.2,> 1000,62.5,–
"Cc1ccc(C(C)C)cc1O [carvacrol, reference compound]",–,–,–,–,–,–,–,–,–,–,–,MIC (Pseudomonas aeruginosa): > 1000 µg/mL; MIC (Actinomyces neaslundii): 125 µg/mL; inhibitory activity on several microorganisms (oral bacteria): showed an inhibitory activity on several microorganisms; MIC [1]: 125 µg/mL; MIC (Corynebacterium xerosis): 125 µg/mL; MIC [2]: 125 µg/mL; MIC (Candida albicans): 250 µg/mL; antimicrobial activity in several in vitro methods [3]: broad spectrum activity; MIC (Steptococcus mutans): 125 µg/mL; MIC (Aspergillus niger): 250 µg/mL; MIC (Propionibacterium acnes): 125 µg/mL; MIC (Escherichia coli): 500 µg/mL; MIC (Staphylococcus aureus): 125 µg/mL
O=CC=Cc1ccccc1 [cinnamaldehyde],–,–,–,–,–,–,–,–,–,–,–,inhibitory activity on several microorganisms (oral bacteria): showed an inhibitory activity on several microorganisms; antimicrobial activity in several in vitro methods [3]: broad spectrum activity
"C=CCc1cc(C(C)(C)C)ccc1O [Example 5, Ortho Allyl Para tert-Butyl Phenol]",–,–,31.2,31.2,31.2,–,–,–,15.6,> 500,31.2,–

# Source: patent US6110888A, “Substituted phenols as fragrance, flavor and antimicrobial compounds” (Takasago International Corporation, priority 1999, dated 2000)
